Experimental data reported in ChEMBL document CHEMBL5104093, “A comprehensive review on β-lapachone: Mechanisms, structural modifications, and therapeutic potentials” (Eur J Med Chem, 2021).
Converted amounts (≈) assume the structure as drawn.

test system: Mycobacterium tuberculosis; assay: Antimycobacterial activity against rifampicin resistant Mycobacterium tuberculosis ATCC 35822 assessed as bacterial growth inhibition incubated for 7 days by resazurin dye based microtiter assay; type: functional; conditions: ATCC 35822, 168 h, time 7 day

Structure (SMILES) | MIC [µg/mL]
CC1(C)CCc2c(c3ccccc3c3nc(-c4ccc([N+](=O)[O-])cc4)[nH]c23)O1 | 1.56 (≈ 4.18 µM)

test system: Mycobacterium tuberculosis; assay: Antimycobacterial activity against rifampicin resistant Mycobacterium tuberculosis ATCC 35338 assessed as bacterial growth inhibition incubated for 7 days by resazurin dye based microtiter assay; type: functional; conditions: ATCC 35338, 168 h, time 7 day

Structure (SMILES) | MIC [µg/mL]
C=CCC1Cc2c(c3ccccc3c3nc4ccccc4nc23)OC1(C)C (stereo unspecified) | 0.78 (≈ 2.2 µM)
CC1(C)CCc2c(c3ccccc3c3nc(-c4cccc(Br)c4)[nH]c23)O1 | 1.56 (≈ 3.83 µM)
CC1(C)CCc2c(c3ccccc3c3nc(-c4cccc(F)c4)[nH]c23)O1 | 1.56 (≈ 4.5 µM)
CC1(C)CCc2c(c3ccccc3c3nc(-c4ccc([N+](=O)[O-])cc4)[nH]c23)O1 | > 100
COc1ccccc1-c1nc2c([nH]1)c1c(c3ccccc32)OC(C)(C)CC1 | 1.56 (≈ 4.35 µM)
Cc1ccccc1-c1nc2c([nH]1)c1c(c3ccccc32)OC(C)(C)CC1 | 1.56 (≈ 4.56 µM)
CC1(C)CCc2c(c3ccccc3c3nc(-c4cccc(C(F)(F)F)c4)[nH]c23)O1 | 1.56 (≈ 3.94 µM)
Cc1ccc(-c2nc3c([nH]2)c2c(c4ccccc43)OC(C)(C)CC2)cc1 | 6.25 (≈ 18.3 µM)
CC1CCC2C(C1)c1c(c3ccccc3c3nc4ccccc4nc13)OC2(C)C (stereo unspecified) | < 6.25
CC1(C)Oc2c(c3nc4ccccc4nc3c3ccccc23)C=C1Br | < 6.25
